# Like-named read-outs stand apart in the source and are kept apart here. Where a SMILES comes first, the peptide text is derived from it. Bridges are numbered along the chain shown (N, C = ends).
# Key:
# M21 melanoma cells = assay: M21 melanoma cell attachment to vitronectin; assay type: cell-based; details: for inhibition of M21 melanoma cell attachment to vitronectin (in words): 35S-methionine labelled cells, vitronectin-coated plates
# Protocol: M21 melanoma cells, which express high levels of the vitronectin receptor, were metabolically labelled with ^35 S-methionine, and then added to 24--well tissue culture plates coated with vitronectin. An incubation period of 1 hr at 37° C. was allowed for cell attachment, and this was followed by a wash to remove non-adherent cells. After washing, the adherent cells were solubilized, and the supernatants placed in a liquid scintillation counter. The fraction of cells remaining adherent was calculated by dividing the cpm in the solubilized supernatants by the cpm in the total number of cells added to each well. The effects of purifed snake venom peptides and synthetic cyclic peptides on cell adhesion was determined by including them with the M21 cells during the incubation period.
# M21 melanoma cells were labelled with ^35 S-methionine, and then added to vitronectin-coated plates in the presence of the indicated concentrations of purified snake venom peptides. Cell attachment was measured by solubilizing the cells remaining after an incubation and wash, as described in Section C, on page 40.
# human platelets = human platelets (Homo sapiens, UniProt P05106+P08514); assay: ADP-induced human platelet aggregation in platelet rich plasma; assay type: cell-based
# Protocol: In these assays, washed platelets are combined with fibrinogen, Ca^+2 and the material to be tested.
# Platelet rich plasma (PRP) was obtained from a healthy human volunteer. Aggregation was induced by the addition of 4 uM ADP to 0.5 ml PRP in an aggregometer (Chrono-log Corp.).
# Fractions were concentrated to one-half their original volume using a Speed-Vac concentrator (Savant) followed by lyophilization. Samples were then reconstituted in 1 ml distilled water and aliquots (10-50 ul) assayed for their ability to inhibit human platelet aggregation in platelet-rich plasma induced by 20 uM ADP using a whole blood aggregometer (Chrono-Log Corp., Havertown, Pa.).
# GP IIb-IIIa = molecular target: T1, GP IIb-IIIa (Homo sapiens, UniProt P05106+P08514); assay: Fibrinogen/GP IIb-IIIa plate binding assay; details: for differential inhibition of fibrinogen/GP IIb-IIIa binding as compared to vitronectin/vitronectin receptor binding: plate assays, FIG. 30; for inhibition of binding of fibrinogen to GP IIb-IIIa (in words): plate assay
# T1 construct: Purified platelet GP IIb-IIIa receptor was prepared as described by Fitzgerald, L. A., et al; from tissue; host or cells: platelets
# Protocol: In the assay, GP IIb-IIIa, prepared in purified form, for example as described by Fitzgerald, L. A., et al., Anal Biochem (1985) 151:169-177, incorporated herein by reference, is coated onto a solid support such as beads, test tubes, or microtiter plates. The coated support is then contacted with fibrinogen and with the test material and incubated for a sufficient time to permit maximal binding of fibrinogen to the immobilized GP IIb-IIIa. Fibrinogen is typically provided at a concentration of about 5-50 nM and the test material can, if desired, be added at a series of dilutions. Typical incubations are 2-4 hr at 35° C., the time and temperature being interdependent.
# After incubation, the solution containing the fibrinogen and test material is removed and the level of binding of fibrinogen measured by quantitating bound fibrinogen to GP IIb-IIIa. Any suitable means of detection may be used, but it is convenient to employ labeled fibrinogen, for example using radioactive, fluorescent or biotinylated labels. Such methods are well known and need not be elaborated here.
# In this case, percent inhibition may be calculated using the amount of Fg bound in the control as representing the basis, so that [formula] Other measures of inhibition effectiveness, such as IC50, may also be used.
# Purified platelet GP IIb-IIIa receptor was prepared as described by Fitzgerald, L. A., et al., Anal Biochem (1985) 151:169-177. Vitronectin receptor was prepared as described by Smith, J. W., J Biol Chem (1988) 263:18726-18731. After purification, the receptors were stored in 0.1% Triton X-100 at 0.1-1.0 mg/ml.
# The receptors were coated to the wells of 96-well flat-bottom ELISA plates (Linbro EIA-Plus microtiter plate, Flow Laboratories) after diluting 1:200 with a solution of […], 150 mM NaCl, 1 mM CaCl2, pH 7.4, to reduce the Triton X-100 concentration to below its critical micellar concentration and adding an aliquot of 100 ul to each well. The wells were all allowed to incubate overnight at 4° C., and then aspirated to dryness. Additional sites were blocked by the addition of bovine serum albumin (BSA) at 35 mg/ml in the above buffer for 2 hr at 30° C. to prevent nonspecific binding. The wells were then washed once with binding buffer ([…] Tris-HCl, 100 mM NaCl, 2 mM CaCl2, 1 mg/ml BSA).
# The corresponding ligands (fibrinogen, von Willebrand Factor, or vitronectin) were labeled with ^125 I or conjugated to biotin using commercially available re-agents and standard protocols. The labeled ligands were added to the receptor-coated wells at final concentration of 10 nM (100 ul/well) and incubated for 3 h at 30° C. in the presence or absence of the test samples. After incubation, the wells are aspirated to dryness and bound ligand is quantitated.
# For ^125 I-labeled ligands, the protein is solubilized with 250 ul SDS. For biotinylated ligands, the bound protein is detected by the addition of antibiotin antibody conjugated to alkaline phosphatase followed by addition of substrate (p-nitrophenyl phosphate), and determination of the optical density of each well at 405 nm.
# Sixty-eight crude, lyophilized snake venoms obtained from either Sigma Chemical Company (St. Louis, Mo.) or Miami Serpentarium Labs (Salt Lake City, Utah) were dissolved at 1 mg/ml in buffer (50 mM Tris, 100 mM NaCl, 0.02% azide, 2 mM CaCi2). One ml aliquots of the solutions were subjected to ultrafiltration through Centrocon-10 (YM membrane) microconcentrators (Amicon, Danvers, Mass.). The filtrates were used as test samples in the receptor/ligand assay of paragraph A using the GP IIb-IIIa/fibrinogen system, and detecting binding using biotinylated fibrinogen.
# platelet receptors = platelet receptors (Homo sapiens, UniProt P05106+P08514); details: read-out: IC50 (affinity of interaction with platelet receptors); background art; cited from earlier work
# open chest dog = assay: Folts model of thrombosis in dog coronary artery (cyclic flow reductions); assay type: in vivo
# Protocol: A. Initiation of cyclic flow reductions (CFRs) in open chest dog. An occluder placed on the left anterior descending (LAD) coronary artery of a 20 kg dog, as previously described was performed.
# vitronectin receptor = molecular target: T2, vitronectin receptor (Homo sapiens, UniProt P05106+P06756); assay: Vitronectin/vitronectin receptor plate binding assay
# T2 construct: Vitronectin receptor was prepared as described by Smith, J. W., J Biol Chem (1988) 263:18726-18731; from tissue; the cited method uses human placenta (own knowledge)
# From the text: The assay systems of the invention further include characterization of the PAI specificity by binding inhibition assays identical to that above but substituting other adhesive proteins for Fg and other receptors for GP IIb-IIIa. In particular, inhibition of the binding of vitronectin to the vitronectin receptor; fibronectin to the fibronectin receptor; fibronectin to GP IIb-IIIa and fibrinogen and/or vWF to GP IIb-IIIa may be assessed. The adhesive protein and receptors for these assays are available in the art.
# Purified platelet GP IIb-IIIa receptor was prepared as described by Fitzgerald, L. A., et al., Anal Biochem (1985) 151:169-177. Vitronectin receptor was prepared as described by Smith, J. W., J Biol Chem (1988) 263:18726-18731. […]
# The corresponding ligands (fibrinogen, von Willebrand Factor, or vitronectin) were labeled with ^125 I or conjugated to biotin using commercially available re-agents and standard protocols. […] After incubation, the wells are aspirated to dryness and bound ligand is quantitated.
# For ^125 I-labeled ligands, the protein is solubilized with 250 ul SDS. For biotinylated ligands, the bound protein is detected by the addition of antibiotin antibody conjugated to alkaline phosphatase followed by addition of substrate (p-nitrophenyl phosphate), and determination of the optical density of each well at 405 nm. […]
# [1] = ADP-induced human platelet aggregation, table of Example 17, read-out: Appr. IC50
# T2 sequence (P06756 31-889 limits assumed): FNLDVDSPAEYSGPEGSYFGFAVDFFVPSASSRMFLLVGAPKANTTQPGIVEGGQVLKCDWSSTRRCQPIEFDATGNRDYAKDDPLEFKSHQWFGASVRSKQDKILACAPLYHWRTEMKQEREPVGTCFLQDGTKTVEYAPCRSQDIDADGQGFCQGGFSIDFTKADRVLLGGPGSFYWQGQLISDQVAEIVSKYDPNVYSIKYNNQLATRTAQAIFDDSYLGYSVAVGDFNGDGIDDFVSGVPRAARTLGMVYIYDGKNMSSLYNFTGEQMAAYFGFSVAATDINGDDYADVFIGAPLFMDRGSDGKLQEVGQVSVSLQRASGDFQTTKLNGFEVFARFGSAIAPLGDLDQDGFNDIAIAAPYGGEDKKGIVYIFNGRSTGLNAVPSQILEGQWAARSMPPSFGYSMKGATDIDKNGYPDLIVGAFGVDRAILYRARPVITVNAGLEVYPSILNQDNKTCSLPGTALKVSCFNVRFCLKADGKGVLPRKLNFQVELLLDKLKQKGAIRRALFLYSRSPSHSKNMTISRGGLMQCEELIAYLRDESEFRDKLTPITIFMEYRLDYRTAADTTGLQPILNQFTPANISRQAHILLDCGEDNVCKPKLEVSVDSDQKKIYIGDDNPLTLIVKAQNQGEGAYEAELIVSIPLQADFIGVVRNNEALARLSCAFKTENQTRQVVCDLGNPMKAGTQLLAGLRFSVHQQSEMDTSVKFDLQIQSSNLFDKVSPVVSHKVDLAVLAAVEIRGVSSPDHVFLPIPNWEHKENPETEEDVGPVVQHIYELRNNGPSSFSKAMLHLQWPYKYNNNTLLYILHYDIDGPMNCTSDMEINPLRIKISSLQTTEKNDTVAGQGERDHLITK
# T2 sequence (P06756 891-1048 partner limits assumed): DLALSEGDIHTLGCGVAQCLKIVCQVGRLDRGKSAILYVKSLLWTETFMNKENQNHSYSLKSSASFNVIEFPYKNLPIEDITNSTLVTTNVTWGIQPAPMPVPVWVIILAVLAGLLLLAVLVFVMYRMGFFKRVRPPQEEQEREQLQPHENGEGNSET
# T2 sequence (P05106 27-788): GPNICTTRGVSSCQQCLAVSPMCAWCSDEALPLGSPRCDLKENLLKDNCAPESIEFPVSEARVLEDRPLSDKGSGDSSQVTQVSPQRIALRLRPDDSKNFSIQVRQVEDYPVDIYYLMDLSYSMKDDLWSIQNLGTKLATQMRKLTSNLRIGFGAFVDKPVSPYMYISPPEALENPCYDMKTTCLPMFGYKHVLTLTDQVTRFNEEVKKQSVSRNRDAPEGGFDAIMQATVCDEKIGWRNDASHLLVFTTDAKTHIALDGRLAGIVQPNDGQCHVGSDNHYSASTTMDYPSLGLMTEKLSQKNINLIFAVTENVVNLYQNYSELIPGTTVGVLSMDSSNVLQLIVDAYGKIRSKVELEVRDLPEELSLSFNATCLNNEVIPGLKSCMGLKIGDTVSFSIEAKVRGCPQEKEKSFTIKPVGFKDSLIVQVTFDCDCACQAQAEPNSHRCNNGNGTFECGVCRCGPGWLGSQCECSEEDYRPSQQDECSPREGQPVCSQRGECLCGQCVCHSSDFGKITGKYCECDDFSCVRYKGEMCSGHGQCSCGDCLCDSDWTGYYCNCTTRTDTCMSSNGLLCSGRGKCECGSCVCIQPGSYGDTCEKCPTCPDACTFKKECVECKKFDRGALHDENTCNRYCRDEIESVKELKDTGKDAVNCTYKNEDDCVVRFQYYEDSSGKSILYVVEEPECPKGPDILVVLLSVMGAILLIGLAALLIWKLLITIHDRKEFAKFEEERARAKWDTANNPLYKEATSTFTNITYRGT
compound,measurement,setting,value
C[C@H](NC(=O)[C@@H]1CSSC[C@H](NC(=O)CN)C(=O)NCC(=O)N[C@@H](CCCNC(=N)N)C(=O)NCC(=O)N[C@@H](CC(=O)O)C(=O)N[C@@H](Cc2c[nH]c3ccccc23)C(=O)N2CCC[C@H]2C(=O)N1)C(N)=O [reference compound] (H-GCGRGDWPCA-NH2; disulfide 2-9),inhibition of M21 melanoma cell attachment to vitronectin (in words),M21 melanoma cells,potent inhibitors of cell attachment
same,inhibition of M21 melanoma cell attachment to vitronectin (in words),M21 melanoma cells; listed as cyclic RGD compound,ability
"C[C@H](NC(=O)[C@@H]1CSSC[C@H](NC(=O)CN)C(=O)NCC(=O)N[C@@H](CCCCN)C(=O)NCC(=O)N[C@@H](CC(=O)O)C(=O)N[C@@H](Cc2c[nH]c3ccccc23)C(=O)N2CCC[C@H]2C(=O)N1)C(N)=O [Analog #3, G-C-G-K-G-D-W-P-C-A-NH2]",inhibition of M21 melanoma cell attachment to vitronectin (in words),M21 melanoma cells,lack of ability
same,concentration up to which ineffective on M21 cell attachment to vitronectin,M21 melanoma cells; FIG. 32,> 60 µM
ECADGLCCDQCRFLKKGTVCRVAKGDWNDDTCTGQSC- D-C-P-R-N-G-L-Y-G (ECADGLCCDQCRFLKKGTVCRVAKGDWNDDTCTGQSCDCPRNGLYG) [Analog #1],platelet aggregation inhibition (in words),human platelets,potent inhibitors of platelet aggregation
same,inhibition of M21 melanoma cell attachment to vitronectin (in words),M21 melanoma cells,neither barbourin nor Peptide 1 (truncated barbourin) had a significant effect
C[C@H](NC(=O)[C@@H]1CSSC[C@H](NC(=O)CN)C(=O)N[C@@H](CCCCN)C(=O)NCC(=O)N[C@@H](CC(=O)O)C(=O)N[C@@H](Cc2c[nH]c3ccccc23)C(=O)N2CCC[C@H]2C(=O)N1)C(N)=O [#4] (H-GCKGDWPCA-NH2; disulfide 2-8),differential inhibition of fibrinogen/GP IIb-IIIa binding as compared to vitronectin/vitronectin receptor binding,GP IIb-IIIa,highest differential
C[C@H](NC(=O)[C@@H]1CSSC[C@H](NC(=O)CN)C(=O)NCC(=O)N[C@@H](CCCCN)C(=O)NCC(=O)N[C@@H](CC(=O)O)C(=O)N[C@@H](Cc2c[nH]c3ccccc23)C(=O)N1)C(N)=O [#6] (H-GCGKGDWCA-NH2; disulfide 2-8),IC50,human platelets; [1],> 200 µM
NCCCC[C@@H]1NC(=O)[C@@H](N)CSSC[C@@H](C(N)=O)NC(=O)[C@@H]2CCCN2C(=O)[C@H](Cc2c[nH]c3ccccc23)NC(=O)[C@H](CCC(=O)O)NC(=O)CNC1=O [#35] (H-CKGEWPC-NH2; disulfide 1-7),IC50,human platelets; [1],> 300 µM
C[C@H](NC(=O)[C@@H]1CSSC[C@H](NC(=O)CN)C(=O)NCC(=O)N[C@@H](CCCCN)C(=O)NCC(=O)N[C@@H](CC(=O)O)C(=O)N[C@@H](Cc2c[nH]c3ccccc23)C(=O)N1)C(N)=O [Analog 6] (H-GCGKGDWCA-NH2; disulfide 2-8),differential inhibition of fibrinogen/GP IIb-IIIa binding as compared to vitronectin/vitronectin receptor binding,GP IIb-IIIa,differentially capable
C[C@H](NC(=O)[C@@H]1CSSC[C@H](NC(=O)CN)C(=O)N[C@@H](CCCCN)C(=O)NCC(=O)N[C@@H](CC(=O)O)C(=O)N[C@@H](Cc2c[nH]c3ccccc23)C(=O)N1)C(N)=O [#7] (H-GCKGDWCA-NH2; disulfide 2-7),differential inhibition of fibrinogen/GP IIb-IIIa binding as compared to vitronectin/vitronectin receptor binding,GP IIb-IIIa,quite specific
same,platelet aggregation inhibition (in words),human platelets,excellent platelet aggregation inhibition activities
same,IC50,"human platelets; text of Example 17, read-out: IC50 for ability to inhibit ADP-induced human platelet aggregation",100 µM
HHLGGAQKAGDV,IC50,platelet receptors,10 to 100 µM
CC(=O)N[C@H]1CSSC[C@@H](C(N)=O)NC(=O)[C@H](CC(=O)O)NC(=O)CNC(=O)[C@H](CCCCN)NC1=O [Analog 8] (Ac-CKGDC-NH2; disulfide 1-5),differential inhibition of fibrinogen/GP IIb-IIIa binding as compared to vitronectin/vitronectin receptor binding,GP IIb-IIIa,differentially capable
NCCCC[C@@H]1NC(=O)CNC(=O)[C@@H](N)CSSC[C@@H](C(N)=O)NC(=O)[C@@H]2CCCN2C(=O)[C@H](Cc2c[nH]c3ccccc23)NC(=O)[C@H](CC(=O)O)NC(=O)CNC1=O [#5] (H-CGKGDWPC-NH2; disulfide 1-8),differential inhibition of fibrinogen/GP IIb-IIIa binding as compared to vitronectin/vitronectin receptor binding,GP IIb-IIIa,quite specific
same,platelet aggregation inhibition (in words),human platelets,excellent platelet aggregation inhibition activities
C[C@H](NC(=O)[C@@H]1CSSC[C@H](NC(=O)CN)C(=O)NCC(=O)N[C@@H](CCCCN)C(=O)NCC(=O)N[C@@H](CC(=O)O)C(=O)N[C@@H](Cc2c[nH]c3ccccc23)C(=O)N2CCC[C@H]2C(=O)N1)C(N)=O [#3],effect on cyclic flow reductions (CFRs) in LAD coronary artery,"open chest dog; 10 mg infused into a peripheral vein, 20 kg open chest dog, FIG. 36",partial ablation of the CFRs
same,effect on cyclic flow reductions (CFRs) in LAD coronary artery,"open chest dog; second infusion of 40 mg into a peripheral vein, open chest dog, FIG. 37",complete ablation of the CFRs
EEPCATGPCCRRCKFKRAGKVCRVAKGDWNNDYCTGKSCDCPRNPWNG (EEPCATGPCCRRCKFKRAGKVCRVAKGDWNNDYCTGKSCDCPRNPWNG) [Analog #2],inhibition of binding of fibrinogen to GP IIb-IIIa (in words),GP IIb-IIIa,ability
same,inhibition of binding of vitronectin to vitronectin receptor (in words),vitronectin receptor,inability to inhibit
"N=C(N)NCCC[C@H](N)C(=O)NCC(=O)N[C@@H](CC(=O)O)C(=O)N[C@@H](Cc1c[nH]c2ccccc12)C(N)=O [RGDW-NH2, reference compound] (H-RGDW-NH2)",inhibition of binding of fibrinogen to GP IIb-IIIa (in words),GP IIb-IIIa,very similar in activity to cyclic GCGRGDWPCA-NH2

# — patent US5786333A, “Platelet aggregation inhibitors” (COR Therapeutics, Inc., priority 1995, dated 1998)
